Tests used:
[1] = test system: J774.1 macrophages; assay: Lipid-loading assay (foam cell formation); assay type: cell-based, murine; settings: LDL 100 μg/mL with 4a or 5a (20 μM), 72 h, unactivated J774.1 macrophages
Protocol: Lipid-loading assay (foam cell formation). J774.1 macrophages were incubated in ATCC-recommended media containing 10% fetal bovine serum under a controlled atmosphere of 5 or 7% CO2 at 37° C., in 8-well chamber slides. […] At termination, cells were washed twice with PBS (pH 7.4). The cells were then fixed with 6% (v/v) paraformaldehyde in PBS for 30 minutes, rinsed with propylene glycol for 2 minutes and lipids were stained with 5 mg/ml Oil Red 0 for 8 minutes. The cells were counterstained with Harris' hematoxylin for 45 seconds, and background staining was removed with 6% paraformaldehyde followed by washing once in PBS and once in tap water. Cover slips were mounted onto the glass slides using glycerol and the slide preparations were examined by light microscopy. The number of lipid-laden cells was scored out of a total of at least 100 cells counted in a single field in each slide, and expressed as a percentage of total cells. Photographs were taken at 100× magnification.

[2] = test system: Class A scavenger receptor (SR-A); assay: Scavenger receptor expression by flow cytometry, SR-A; assay type: cell-based, murine; settings: cultured macrophages, compound in the absence of LDL
Protocol: Cell surface CD36 and SR-A were measured by flow cytometry using CD36 (BD Biosciences Pharmingen, San Diego, Calif.) and CD204 (Serotec, Oxford, UK) specific monoclonal antibodies. See Liao et al. (2000) Arterioscler. Thromb. Vasc. Biol. 20: 1968-75; Hu et al. (1996) Blood 87: 2020-28. Murine macrophage J774A.1 cells were serum-starved overnight in media with 0.5% BSA. Cells (1×10^6) treated with cholesterol ozonation products or cholesterol ozonation product complexed with LDL for specified times were then washed twice with PBS. […] Expression of either CD36 or SR-A was determined with CD36 (BD Biosciences Pharmingen, San Diego, Calif.) and CD204 (Serotec, Oxford, U.K.) specific monoclonal antibodies, respectively. After washing off the primary antibody, secondary antibodies were added, cells were washed again, then analyzed on a FACS calibur 2 (Becton Dickinson, Sparks, Md.) flow cytometer and analyzed by CellQuant software. Results were expressed as mean fluorescence intensity±standard error of the mean (SEM) of at least duplicate determinations. Significance was determined using a student two-tail t test, with (*) indicating p<0.05, and (**) indicating p<0.01 versus the control.

[3] = test system: CD36; assay: Scavenger receptor expression by flow cytometry, CD36; assay type: cell-based, murine
Protocol: Cell surface CD36 and SR-A were measured by flow cytometry using CD36 (BD Biosciences Pharmingen, San Diego, Calif.) and CD204 (Serotec, Oxford, UK) specific monoclonal antibodies. See Liao et al. (2000) Arterioscler. Thromb. Vasc. Biol. 20: 1968-75; Hu et al. (1996) Blood 87: 2020-28. Murine macrophage J774A.1 cells were serum-starved overnight in media with 0.5% BSA. Cells (1×10^6) treated with cholesterol ozonation products or cholesterol ozonation product complexed with LDL for specified times were then washed twice with PBS. After harvesting the cells by scraping, they were fixed with 6% paraformaldehyde for 20 min; Cells were then resuspended in PBS containing 2% heat-inactivated FCS, 0.05% NaN3 and appropriate primary antibody, antibody conjugate or isotype control (1:100 dilution) and incubated on ice for 30 min. Expression of either CD36 or SR-A was determined with CD36 (BD Biosciences Pharmingen, San Diego, Calif.) and CD204 (Serotec, Oxford, U.K.) specific monoclonal antibodies, respectively. After washing off the primary antibody, secondary antibodies were added, cells were washed again, then analyzed on a FACS calibur 2 (Becton Dickinson, Sparks, Md.) flow cytometer and analyzed by CellQuant software. Results were expressed as mean fluorescence intensity±standard error of the mean (SEM) of at least duplicate determinations. Significance was determined using a student two-tail t test, with (*) indicating p<0.05, and (**) indicating p<0.01 versus the control.

[4] = test system: E-selectin (CD62E); assay: Endothelial adhesion molecule expression by ELISA, E-selectin; assay type: cell-based, human
Protocol: (§1) Endothelial cell surface adhesion molecule expression was measured by ELISA, using anti-human CD54 (ICAM-1), CD106 (VCAM-1) and CD62E (E-Selectin) antibodies (Leinco Technologies, Inc., St. Louis, Mo.). The ELISA method was modified from previously described procedures.
(§2) Cells were then incubated with antibodies to VCAM-1, E-selectin, or ICAM-1 diluted 1:400 in PBS containing 5% FCS at 37° C. for 30 min. Wells were washed two times with PBS, then incubated with horseradish peroxidase (HRP)-conjugated goat anti-mouse IgG (Southern Biotechnology Associates, Birmingham, Ala., USA) in PBS/5% FCS at 37° C. for 30 min. The wells were washed four times with PBS, then incubated with H2O2/3,3′,5,5′-tetramethyl-benzidine peroxidase substrate (Pierce Chemical, Rockford, Ill., USA) for 30 min in the dark. The reaction was stopped by adding 25 μl of 8 N H2SO4, and the plates read on a microplate reader, blanking on wells stained with only secondary antibody. Each assay was performed in triplicate and the data are reported as the mean±SEM as a percentage of the expression level of the vehicle. To study the effect of cholesterol ozonation product 5a concentration (5-50 μM) on E-selectin expression, the assay was performed in an identical fashion as described above, with each point being the mean±SEM of at least duplicate measurements.

[5] = test system: ICAM-1 (CD54); assay: Endothelial adhesion molecule expression by ELISA, ICAM-1; assay type: cell-based, human
Protocol: as §1, §2

[6] = test system: U-937 monocytes cells; assay: Monocyte adhesion to endothelial cell monolayers by fluorescence spectroscopy; assay type: cell-based; settings: alone or in complex with LDL
[7] = test system: THP-1 monocytes; assay: Monocyte morphology changes (differentiation into macrophages); assay type: cell-based, human; settings: 12.5 or 25 μM, up to 7 days
Protocol: THP-1 monocytes in suspension were plated in 8-well chambered slides. […] Media containing appropriate treatment compounds was replaced after 4 days. After 4 days treatment, morphologic changes of the adherent cells were assessed by phase-contrast microscopy and photographed using an Olympus Microfire digital camera.

[8] = Aldolization of secoketoaldehyde 4a with atherosclerotic artery and blood fractions (1H NMR); assay type: in vitro ADME, human; settings: in the presence of lyophilized PBS
Protocol: Aldolization of secoketoaldehyde 4a with atherosclerotic artery and bloodfractions. […] To this solution was added either a) atherosclerotic artery (2.1 mg) that had been homogenized in PBS (1 ml) in a tissue homogenizer and then lyophilized to dryness, b) lyophilized human blood (1 ml), c) lyophilized human plasma (1 ml) or d) PBS lyophilized (1 ml). At time points samples were removed and analyzed by ^1H NMR vide supra.

[9] = target: LDL / apoB-100 (Homo sapiens, UniProt P04114); assay: Circular dichroism of LDL secondary structure; settings: LDL 100 μg/ml with 10 μM compound, PBS pH 7.4, 37° C., up to 48 h; normal LDL ~40±2%
Chain of LDL / apoB-100 (P04114 28-4563): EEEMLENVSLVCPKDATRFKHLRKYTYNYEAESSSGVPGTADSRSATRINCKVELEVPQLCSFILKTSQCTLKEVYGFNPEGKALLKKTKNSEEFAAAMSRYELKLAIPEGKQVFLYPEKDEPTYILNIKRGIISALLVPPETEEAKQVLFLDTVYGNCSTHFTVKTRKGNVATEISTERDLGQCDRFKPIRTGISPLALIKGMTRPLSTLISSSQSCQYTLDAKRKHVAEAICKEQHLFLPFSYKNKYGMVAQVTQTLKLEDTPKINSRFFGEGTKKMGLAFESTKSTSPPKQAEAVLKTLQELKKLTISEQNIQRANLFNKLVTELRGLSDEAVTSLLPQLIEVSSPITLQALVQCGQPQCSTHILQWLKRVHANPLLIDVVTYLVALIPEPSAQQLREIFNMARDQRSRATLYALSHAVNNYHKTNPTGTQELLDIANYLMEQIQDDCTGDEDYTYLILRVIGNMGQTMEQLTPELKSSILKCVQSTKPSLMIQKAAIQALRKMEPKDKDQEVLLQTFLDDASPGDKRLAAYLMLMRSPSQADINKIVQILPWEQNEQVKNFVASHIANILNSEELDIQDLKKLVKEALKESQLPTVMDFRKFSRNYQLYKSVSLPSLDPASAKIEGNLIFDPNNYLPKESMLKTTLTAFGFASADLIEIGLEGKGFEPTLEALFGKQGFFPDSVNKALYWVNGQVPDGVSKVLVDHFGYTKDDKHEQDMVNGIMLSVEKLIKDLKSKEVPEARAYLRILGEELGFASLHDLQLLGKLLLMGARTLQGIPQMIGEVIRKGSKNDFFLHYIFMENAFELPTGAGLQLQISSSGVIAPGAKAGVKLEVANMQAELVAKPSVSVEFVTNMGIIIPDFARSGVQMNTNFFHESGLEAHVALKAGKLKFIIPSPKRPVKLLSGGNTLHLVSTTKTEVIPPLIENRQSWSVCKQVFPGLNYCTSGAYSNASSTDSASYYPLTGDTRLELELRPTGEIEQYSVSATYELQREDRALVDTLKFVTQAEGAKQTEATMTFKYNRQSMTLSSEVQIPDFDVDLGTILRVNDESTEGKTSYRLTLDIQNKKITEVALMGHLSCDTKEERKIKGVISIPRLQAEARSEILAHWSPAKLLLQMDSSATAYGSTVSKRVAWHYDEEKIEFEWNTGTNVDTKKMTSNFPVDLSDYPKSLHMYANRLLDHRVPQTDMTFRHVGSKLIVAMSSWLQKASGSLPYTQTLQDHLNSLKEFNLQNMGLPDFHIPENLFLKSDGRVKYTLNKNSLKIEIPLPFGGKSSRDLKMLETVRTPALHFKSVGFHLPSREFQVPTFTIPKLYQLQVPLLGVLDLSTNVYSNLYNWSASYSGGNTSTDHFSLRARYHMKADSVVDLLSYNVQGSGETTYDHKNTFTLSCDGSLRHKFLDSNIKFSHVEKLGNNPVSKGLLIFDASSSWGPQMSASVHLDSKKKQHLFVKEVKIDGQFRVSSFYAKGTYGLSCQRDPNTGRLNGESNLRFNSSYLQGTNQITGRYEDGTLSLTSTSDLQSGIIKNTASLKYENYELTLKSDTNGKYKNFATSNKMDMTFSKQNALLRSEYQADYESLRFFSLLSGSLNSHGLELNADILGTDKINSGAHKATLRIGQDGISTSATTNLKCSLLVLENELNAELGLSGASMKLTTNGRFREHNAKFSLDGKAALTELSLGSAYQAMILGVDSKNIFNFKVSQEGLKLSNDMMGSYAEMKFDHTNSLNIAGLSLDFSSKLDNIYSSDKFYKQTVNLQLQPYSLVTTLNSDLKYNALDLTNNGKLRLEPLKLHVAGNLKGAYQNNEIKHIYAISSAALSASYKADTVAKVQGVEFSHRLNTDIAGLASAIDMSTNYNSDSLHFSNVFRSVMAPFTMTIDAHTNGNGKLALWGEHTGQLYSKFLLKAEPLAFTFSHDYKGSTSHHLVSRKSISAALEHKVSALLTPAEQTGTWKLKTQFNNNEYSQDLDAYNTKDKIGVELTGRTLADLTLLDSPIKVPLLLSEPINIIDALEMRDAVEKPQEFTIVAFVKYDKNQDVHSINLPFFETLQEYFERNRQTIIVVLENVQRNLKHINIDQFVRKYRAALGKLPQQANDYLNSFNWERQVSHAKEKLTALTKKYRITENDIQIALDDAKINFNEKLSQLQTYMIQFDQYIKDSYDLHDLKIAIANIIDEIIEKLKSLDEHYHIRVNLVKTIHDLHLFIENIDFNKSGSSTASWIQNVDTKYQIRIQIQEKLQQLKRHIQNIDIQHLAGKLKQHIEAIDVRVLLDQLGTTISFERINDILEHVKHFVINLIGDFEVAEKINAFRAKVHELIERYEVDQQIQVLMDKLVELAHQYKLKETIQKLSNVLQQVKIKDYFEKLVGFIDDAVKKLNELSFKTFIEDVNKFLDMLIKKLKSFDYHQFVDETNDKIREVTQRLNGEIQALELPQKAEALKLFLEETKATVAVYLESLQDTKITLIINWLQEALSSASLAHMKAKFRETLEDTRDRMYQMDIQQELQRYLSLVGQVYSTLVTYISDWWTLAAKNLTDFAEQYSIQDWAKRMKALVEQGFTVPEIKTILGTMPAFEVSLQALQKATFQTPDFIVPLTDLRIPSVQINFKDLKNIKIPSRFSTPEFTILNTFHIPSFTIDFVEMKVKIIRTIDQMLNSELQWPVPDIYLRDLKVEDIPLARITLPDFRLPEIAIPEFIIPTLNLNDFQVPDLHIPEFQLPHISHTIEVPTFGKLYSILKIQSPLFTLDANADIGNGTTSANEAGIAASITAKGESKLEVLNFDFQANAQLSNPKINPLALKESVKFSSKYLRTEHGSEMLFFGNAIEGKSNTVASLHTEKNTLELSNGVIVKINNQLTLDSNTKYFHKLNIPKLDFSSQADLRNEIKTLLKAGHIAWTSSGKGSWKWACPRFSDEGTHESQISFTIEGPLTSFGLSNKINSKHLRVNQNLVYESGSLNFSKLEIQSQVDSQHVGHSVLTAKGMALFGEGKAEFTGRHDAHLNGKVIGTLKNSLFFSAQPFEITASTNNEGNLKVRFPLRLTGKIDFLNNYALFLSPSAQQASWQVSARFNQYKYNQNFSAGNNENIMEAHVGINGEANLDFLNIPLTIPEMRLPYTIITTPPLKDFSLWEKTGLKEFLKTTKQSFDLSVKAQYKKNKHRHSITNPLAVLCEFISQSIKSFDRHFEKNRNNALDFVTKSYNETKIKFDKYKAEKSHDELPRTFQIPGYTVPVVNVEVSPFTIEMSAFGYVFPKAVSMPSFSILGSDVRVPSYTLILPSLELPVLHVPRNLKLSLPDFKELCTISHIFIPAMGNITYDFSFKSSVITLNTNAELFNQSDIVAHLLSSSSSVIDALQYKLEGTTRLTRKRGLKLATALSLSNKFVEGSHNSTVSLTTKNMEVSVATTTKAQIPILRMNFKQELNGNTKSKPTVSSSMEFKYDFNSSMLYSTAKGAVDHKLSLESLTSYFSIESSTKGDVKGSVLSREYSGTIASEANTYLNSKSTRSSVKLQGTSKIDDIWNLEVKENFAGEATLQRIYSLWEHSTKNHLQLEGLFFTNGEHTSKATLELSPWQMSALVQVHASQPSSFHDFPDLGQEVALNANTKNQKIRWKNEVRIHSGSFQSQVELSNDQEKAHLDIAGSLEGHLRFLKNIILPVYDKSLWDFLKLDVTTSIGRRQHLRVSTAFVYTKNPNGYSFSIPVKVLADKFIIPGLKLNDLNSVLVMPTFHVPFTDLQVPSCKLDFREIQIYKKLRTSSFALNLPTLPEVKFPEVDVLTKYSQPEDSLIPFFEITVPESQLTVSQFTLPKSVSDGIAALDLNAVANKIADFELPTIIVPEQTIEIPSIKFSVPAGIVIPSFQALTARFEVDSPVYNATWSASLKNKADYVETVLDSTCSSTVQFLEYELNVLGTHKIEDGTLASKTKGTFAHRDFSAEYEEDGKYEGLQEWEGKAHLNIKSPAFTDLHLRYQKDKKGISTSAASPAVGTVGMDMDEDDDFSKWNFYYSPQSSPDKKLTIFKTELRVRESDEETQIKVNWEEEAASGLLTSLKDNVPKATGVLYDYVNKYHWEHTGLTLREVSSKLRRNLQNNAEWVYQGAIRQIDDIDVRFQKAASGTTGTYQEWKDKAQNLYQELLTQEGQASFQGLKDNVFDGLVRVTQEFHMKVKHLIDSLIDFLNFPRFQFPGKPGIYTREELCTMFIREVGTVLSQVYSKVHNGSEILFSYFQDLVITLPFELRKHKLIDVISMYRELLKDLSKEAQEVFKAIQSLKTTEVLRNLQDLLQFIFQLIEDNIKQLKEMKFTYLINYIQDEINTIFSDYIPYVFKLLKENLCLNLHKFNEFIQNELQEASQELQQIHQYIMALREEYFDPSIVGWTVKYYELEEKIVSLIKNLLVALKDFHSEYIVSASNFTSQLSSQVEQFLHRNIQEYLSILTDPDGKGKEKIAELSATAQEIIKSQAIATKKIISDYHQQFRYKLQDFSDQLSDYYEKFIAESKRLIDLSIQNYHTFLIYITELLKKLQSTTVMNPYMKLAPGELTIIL
Protocol: Spectra were recorded in the peptidic range (200-260 nm). To increase the signal-to-noise ratio, multiple spectra (three) were averaged for each measurement. The deconvolution of the molar elipticity spectra for each measurement was performed using the CDPro suite of software (by Narasimha Sreerama from Colorado State University) on a Dell PC.

In the case of CC(C)CCC[C@@H](C)[C@H]1CCC2C(CC=O)C([C@@]3(C)CC[C@H](O)CC3=O)CC[C@@]21C (stereo partly shown) [4a, 3βHydroxy-5-oxo-5,6-secocholestan-6-al], the “lipid-loading of macrophages / foam cell formation” value [1] is reported as “began lipid-loading and foam cells began to appear”, the SR-A expression [2] is reported as “did not increase expression of either receptor” and the CD36 expression ([3]; J774A.1, 25 μM compound complexed with LDL (100 μg/ml protein), 6 h) is reported as “little or no effect”. For the same molecule, the CD36 expression ([3]; cultured macrophages, compound in the absence of LDL) was “did not increase expression of either receptor”, the “induction of E-selectin levels” value ([4]; HAAE-1, 1.25 μM complexed with LDL (100 μg/mL protein)) was 2 fold and the “induction of E-selectin levels” value ([4]; HAAE-1, 50 μM complexed with LDL (100 μg/mL protein)) was “about 8 fold”. The “selectin (E-selectin) expression” value ([4]; HAAE-1, not complexed with LDL) was “no effects”, the ICAM-1 levels ([5]; HAAE-1, 25 μM compound in the presence of LDL, 4 h) was “remain unchanged” and the “integrin expression (ICAM-1)” value ([5]; HAAE-1, not complexed with LDL) was “no effects”. For the same molecule, the “adhesion of U-937 monocytes to endothelial cell monolayers, above that of LDL alone” value [6] was “neither ozonolysis product 4a nor 5a, alone or in complex with LDL, nor CuOx-LDL significantly increased adhesion”, the “THP-1 monocyte differentiation into macrophages (adherence, morphology)” value [7] was “neither became adherent nor developed the aforementioned morphological changes” and the “aldolization of 4a” value [8] was “no aldolization”. For the same molecule, the “a helical structure of LDL” value [9] was about 23±5%.
